Like-named read-outs stand apart in the source and are kept apart here.

The subject of one experiment is RBL-2H3 cells. The experiment can be described thus: Repression of liberation of mediators (serotonin, histamine, arachidonic acid) from RBL-2H3 cells. Type of experiment: cell-based, rat. The text has this:
[Study on activity to repress the liberation of various mediators from rat basophilic leukemic cell strain (RBL-2H3) and activity to repress thyrosine kinase]
The cells of RBL-2H3, one species of rat cell line, carry out not only the liberation of histamine and serotonin but also the formation and liberation of prostaglandins, TNFα, etc., i.e. inflammatory mediators, owing to the specific antigen of the IgE antibody bound to the IgE receptor. In the present test system, therefore, the cells were marked with serotonin and arachidonic acid labeled in advance with [^3H] and cultured in the presence of a compound under test and in the absence thereof and the amounts of the mediators liberated in the culture medium were measured. Thus, the given compounds were tested for activity to repress the liberation of various mediators. The TNFα was determined by means of bioassay.

The next experiment deals with Jurkat cells (T-cells). The experiment can be described thus: Thyrosine kinase selectivity in Jurkat cells (antigenic stimulus). Format: cell-based.
A further experiment concerns phospholipase C. Kind of experiment: Repression of activation of phospholipase C, intracellular substrate of the thyrosine kinase. Type of experiment: cell-based. Particulars: at the same concentration (12 µM).
In a further experiment the test system is TNFα. The experiment can be described thus: Repression of formation and liberation of TNFα (bioassay). Particulars: at the same concentration (12 µM). Type of experiment: cell-based, rat.
[1] abbreviates: Rattus norvegicus, RBL-2H3 cells, [3H]-labelled serotonin, read-out: IC50 (µM) in liberation of serotonin from RBL-2H3 cells.

For `Cc1ccc2c(=O)c3ccccc3n(CCCNCc3ccccc3)c2c1C` [Example 19, 3,4-Dimethyl-10-(3-benzylaminopropyl)-9-acridone], in the experiment on RBL-2H3 cells (setting [1]), the IC50 turned out to be 3 µM.
As to `Cc1c(F)cc2c(=O)c3ccccc3n(CCCN)c2c1C` [Example 1, 2-Fluoro-3,4-dimethyl-10-(3-aminopropyl)-9-acridone], in the experiment on RBL-2H3 cells (setting [1]), the IC50 is 1.7 µM.
For the compound “3,4-Dimethyl-10-[3-(2-imidazoylmethyl)aminopropyl]-9 acridone [Example 32]”, the IC50 in the experiment with RBL-2H3 cells (RBL-2H3 cells, [3H]-labelled serotonin, read-out: IC50 (µM) in liberation of serotonin from RBL-2H3 cells) stood at 0.6 µM.
`Cc1ccc2c(=O)c3ccccc3n(CCCN)c2c1C` [Example 2, 3,4-Dimethyl-10-(3-aminopropyl)-9-acridone]: in the experiment with RBL-2H3 cells (Rattus norvegicus, RBL-2H3, RBL-2H3 cells, [3H]-labelled serotonin, read-out: IC50 (µM) in liberation of serotonin from RBL-2H3 cells), the IC50 turned out to be 6 µM.
Take `Cc1ccc2c(=O)c3ccccc3n(CCCN)c2c1C.O=C(O)C(=O)O` [Example 3, 3,4-Dimethyl-10-(3-aminopropyl)-9-acridone oxalate]: the “activity to repress the antigenic stimulus in the Jurkat cells” value in the experiment with Jurkat cells (T-cells) (Jurkat cells) is “absolutely no activity”. Moreover, in the experiment on Jurkat cells (T-cells) (concluded from the Jurkat cell test), the “activity to repress such thyrosine kinases as p561ck and fyn” value is recorded as “no activity”. For the same compound, the “activation of phospholipase C” value with phospholipase C is “repressed”. For the same compound, in the experiment with TNFα, the “formation and liberation of TNFα” value was “repressed”. The IC50 in the experiment on RBL-2H3 cells (Rattus norvegicus, RBL-2H3, due to the antigenic stimulus, read-out: IC50 value, liberation of arachidonic acid from the RBL-2H3 cells) worked out at 12 µM; in the experiment on RBL-2H3 cells (Rattus norvegicus, RBL-2H3, due to the antigenic stimulus, read-out: IC50 value, liberation of histamine from the RBL-2H3 cells), 12 µM; with RBL-2H3 cells (Rattus norvegicus, RBL-2H3, due to the antigenic stimulus, read-out: IC50 value, liberation of serotonin from the RBL-2H3 cells) it was 12 µM.
